Experimental data as given in article PMC11475408, “All‐Inorganic Polyoxometalates Act as Superchaotropic Membrane Carriers” (Advanced Materials (Deerfield Beach, Fla.), 2023).
Like-named read-outs stand apart in the source and are kept apart here.

Tests used:
[1] = Hydrolysis/stability of POMs in buffer by NMR; details: for Hydrolysis/stability pH 5.5: 10 mM Mes, 107 mM NaCl, long-term (24 h and longer)
Description: First, their long‐term (24 h and longer) fate in aqueous solution (slightly acidic and neutral) was investigated by applying the active NMR nuclei in their composition (Table S9 and Figures S24–S37, see the Supporting Information for details).
NMR-spectroscopic characterization of identity and stability
NMR spectroscopy for all POMs tested was performed under experimental conditions.

[2] = CF transport assay in EYPC⊃CF vesicles (carrier activity); format: biochemical; set-up: key to Carrier activity: ‐ – ‐: No detectable activity at pH 5.5 and 7.4; details: for heptaLys Ymax / EC50 / HeptaArg Y max / PolyArg Y max / Protamine Y max / HeptaArg Ymax, pH 5.5 / PolyArg Ymax, pH 5.5 / Protamine Ymax, pH 5.5: CF assay; for heptaLys Ymax: 13 µM phospholipids; for heptaLys Ymax / HeptaArg Y max / PolyArg Y max / Protamine Y max / HeptaArg Ymax, pH 5.5: ±2% error (SD); for HeptaArg Y max: 13 µM lipid, 10 mM Hepes or Tris, 10 min, Hill fit, triplicates; for heptaLys E / PolyArg E (activation efficiency) / Protamine E (activation efficiency) / HeptaArg E (activation efficiency) / HeptaArg E, pH 5.5 / PolyArg E, pH 5.5 / Protamine E, pH 5.5: f = 20.6; for heptaLys E / PolyArg E (activation efficiency) / Protamine E (activation efficiency) / HeptaArg E (activation efficiency) / HeptaArg E, pH 5.5: 10% error; for HeptaArg E (activation efficiency): E = Ymax(pEC50/f); for Transport activity (in words): EYPC⊃CF vesicles, neutral pH, carrier then cargo; for Onset for transport activity (carrier concentration): vesicles, heptaArg dose-response curves (Figure 2b)
Description: The capability of POMs to act as membrane carriers was explored first in large unilamellar vesicles (LUVs) loaded with carboxyfluorescein (CF).^[ [54], [55] ^] We selected […] representative cationic peptides, heptaarginine (heptaArg), heptalysine (heptaLys), protamine, and polyarginine (polyArg), as test cargos. Inside the LUVs, the CF dye was encapsulated at self‐quenching concentrations. With a suitable carrier, heptaArg can be taken up into the vesicles, bind with entrapped CF, and shuttle back to the exterior, diluting the previously quenched CF, and thereby restoring its fluorescence (Figure 1c). In the time‐resolved fluorescence experiments (Figure 2a), to test whether a particular POM acts as molecular carrier, the CF emission was continuously monitored during the addition of the inorganic carrier (t = 60 s) and after injection of the impermeable selected cargo (t = 120 s). Toward the end of the experiment (t = 600 s), the surfactant Triton X‐100 was added to release all the entrapped CF and allow normalization of the intensity data.
A thin lipid film was prepared by evaporating a lipid solution of EYPC (egg yolk phosphatidylcholine, 25 mg) in CHCl3 (1 mL) with a stream of nitrogen and then dried in vacuo overnight. The dry film was rehydrated with 1 mL buffer (50 mM CF, 10 mM Hepes, pH 7.4 or 50 mM CF, 10 mM Tris, pH 7.4) for 30 min at room temperature, subjected to freeze–thaw cycles (7 times) and extrusions (15 times) through a polycarbonate membrane (pore size 100 nm). Extravesicular components were removed by size exclusion chromatography (NAP‐25 column Sephadex G‐25 DNA grade) with 10 mM Hepes, 107 mM NaCl, pH 7.4, or 10 mM Hepes, 107 mM NaCl, pH 7.4. Phospholipid concentration was calculated by the Stewart assay.^[ [81] ^]
Acidic vesicles were prepared analogously but the rehydration and elution buffer were 50 mM CF, 10 mM Mes, pH 5.5 and 10 mM Mes, 107 mM NaCl, pH 5.5. respectively.
Vesicles stock solutions (5–10 µL) were diluted with the corresponding buffer in a disposable plastic cuvette and gently stirred (total volume 2000 µL, final lipid concentration 13 µM). Carboxyfluorescein fluorescence was monitored at λ em = 517 nm (λ ex = 492 nm) as a function of time after addition of POMs at 60 s, analyte at 120 s and Triton X‐100 (24 µL 1.2% wt/vol) at 600 s to lyse the vesicles, for calibration. Fluorescence intensities were normalized to fractional emission as (1) It=It−I0/I∞−I0 where I 0 = I t before POM addition and […] after lysis. For Hill analysis, I t before lysis was defined as transport activity, Y, and plotted against POM concentration, c, and fitted to the Hill Equation (2), to afford the activity in absence of POM, Y 0, the maximal activity, Y max, the concentration needed to achieve 50% of maximal activity, EC 50, and the Hill coefficient, n (2) Y=Y0+Ymax−Y0/1+EC50/c^n
In the transport measurements, where different carriers (POMs) are tested with the same cargo, the activator efficiency (E) is determined by their capacity to transport the impermeable cargo to the intravesicular region and is characterized by Y max, its maximal activity, and EC 50, the effective activator concentration. An ideal carrier reaches high Y max at low EC 50. To count both factors, the activator efficiency is defined as (3) E=YmaxpEC50/f were pEC 50 is the negative logarithm of the EC 50, and f a scaling factor, which was set to 20.6 to calibrate the highest (previously known) activation efficiency, E, as 10.^[ [55] ^]

CHO‐K1 cells = test: Cellular viability, resazurin assay; format: cell-based, Chinese hamster; details: CHO-K1, up to 10 µM carrier, 24 h, n = 3
Description: For cell viability assay in thepresence of activators, CHO‐K1 cells were incubated in Ham's F‐12 medium containing 10% fetal bovine serum and 1.0% penicillin streptomycin at 37 °C in a 5% CO2 for 24 h. CHO‐K1 cells were dispersed in a 96‐well flat bottom tissue culture treated plates (Eppendorf) at density of 5 × 10^3 cells per well (per 100 µL) and incubated in Ham's F‐12 containing 10% v/v fetal bovine serum at 37 °C in a 5% CO2 incubator for 12 h to allow cell adhesion. Then, cells were incubated with POM, B12Br12 ^2−, or PyBu (10, 50, and 100 µM) for another 24 h. After this incubation time, 20 µL resazurin solution (0.15 mg mL^−1) was added to cells and incubated for another 3 h. Finally, the plates were read at λ em = 590 nm (λ ex = 560 nm) using a JASCO fluorometer FP‐8500. The cell viability was evaluated by the following equation (4) Cellviability=FIsample−FIblank/FIcontrol−FIblank×100% where, FI sample is the fluorescence intensity of cells incubated with different compounds, FI blank is the fluorescence intensity of medium, and FI control is the fluorescence intensity of cells in absence of any compound.
6. Transport in cellular membranes
Figure S13. Viability of CHO-K1cells (resazurin assay) incubated with different carrier concentrations (0, 10, 50, and 100 µM) for 24 hours. Error bars refer to standard deviation (n = 3).
Figure S14. […]

[3] = 3 mM POM, 10 mM Mes pH 5.5, 31P NMR integration
[4] = 3 mM POM, 10 mM Tris-HCl pH 7.5, 31P NMR integration
[5] = EYPC (zwitterionic), heptaLys cargo
[6] = EYPC (zwitterionic), heptaLys cargo, 5% error (SD), read-out: heptaLys EC50
[7] = EYPC LUVs, 10 µM heptaArg, 107 mM NaCl, pH 7.4
[8] = EYPC LUVs, 0.1 µM polyArg, pH 7.4, 5% error (SD), read-out: PolyArg EC 50
[9] = EYPC LUVs, 0.1 µM polyArg, pH 7.4
[10] = EYPC LUVs, 1 µM protamine, pH 7.4, 5% error (SD), read-out: Protamine EC 50
[11] = EYPC LUVs, 1 µM protamine, pH 7.4
[12] = EYPC LUVs, 10 µM heptaArg, pH 7.4, carrier concentration for 50% of Ymax, 5% error (SD), read-out: HeptaArg EC 50
[13] = EYPC vesicles, 10 µM heptaArg, 10 mM Mes, 107 mM NaCl, pH 5.5
[14] = EYPC vesicles, heptaArg cargo, 10 mM Mes, 107 mM NaCl, pH 5.5, 5% error (SD), read-out: HeptaArg EC50, pH 5.5
[15] = EYPC vesicles, polyArg cargo, 10 mM Mes, 107 mM NaCl, pH 5.5
[16] = EYPC vesicles, polyArg cargo, pH 5.5, read-out: PolyArg EC50, pH 5.5
[17] = EYPC vesicles, protamine cargo, 10 mM Mes, 107 mM NaCl, pH 5.5
[18] = EYPC vesicles, protamine cargo, pH 5.5, read-out: Protamine EC50, pH 5.5
[19] = EYPC LUVs, 10 µM heptaArg, pH 7.4
[20] = EYPC vesicles, protamine, pH 5.5

Substance: K4[α‐P^VV^VW^VI 11O40]·4H2O [[PVW11]^4‒]
- % monolacunary [PVWVI11O39]7‒ formed, Mes pH 5.5 after 1 day [1, 3]: 1%
- % monolacunary [PVWVI11O39]7‒ formed, Mes pH 5.5 after 5 days [1, 3]: 1%
- % parent anion, Mes pH 5.5 after 1 day [1, 3]: 99%
- % parent anion, Mes pH 5.5 after 5 days [1, 3]: 99%
- % parent (active) anion, Mes pH 5.5 freshly prepared ([1]; 3 mM POM, 10 mM Mes pH 5.5, 31P NMR signal integration, appr. 3 h after dissolution): 99%
- % parent anion, Tris-HCl pH 7.5 after 1 day [1, 4]: 71%
- % parent anion, Tris-HCl pH 7.5 after 5 days [1, 4]: 68%
- Hydrolysis/stability pH 5.5 ([1]; NMR): Stable
- heptaLys Ymax [2, 5]: 62%
- EC50 [2, 6]: 38 µM
- HeptaArg Y max [2, 7]: 84%
- EC50 [2, 8]: 12 µM
- PolyArg Y max [2, 9]: 88%
- EC50 [2, 10]: 41 µM
- Protamine Y max [2, 11]: 88%
- EC50 [2, 12]: 49 µM
- HeptaArg Ymax, pH 5.5 [2, 13]: 79%
- EC50 [2, 14]: 28 µM
- PolyArg Ymax, pH 5.5 [2, 15]: 91%
- EC50 [2, 16]: 5 µM
- Protamine Ymax, pH 5.5 [2, 17]: 79%
- EC50 [2, 18]: 19 µM
- heptaLys E [2, 5]: 4.3
- PolyArg E (activation efficiency) [2, 9]: 8.2
- Protamine E (activation efficiency) [2, 11]: 5.9
- HeptaArg E (activation efficiency) [2, 19]: 5.3
- HeptaArg E, pH 5.5 ([2]; EYPC vesicles, pH 5.5): 5.9
- PolyArg E, pH 5.5 ([2]; EYPC vesicles, pH 5.5): 10.1
- Protamine E, pH 5.5 [2, 20]: 6.6
- Transport activity (in words) [2]: triggered the desired increase in fluorescence characteristic for cargo transport
- Onset for transport activity (carrier concentration) [2]: around 1 µM
- Cell viability (CHO‐K1 cells): about 80%

Substance: K4[α‐Si^IVMo^VIW^VI 11O40]·24H2O [[SiMoW11]^4‒]
- Hydrolysis/stability pH 5.5 ([1]; NMR): Stable
- Solution stability in Mes pH 5.5 (183W NMR) ([1]; 10 mM POM, 33 mM Mes pH 5.5 (final pH 5), only signals of intact anion, acquisition 60 h): solution stability for up to 60 h
- % parent anion, Tris-HCl pH 7.5 (183W NMR) ([1]; 10 mM POM, 33 mM Tris pH 7.5 (final pH 6.9), 183W NMR signal intensities, acquisition 60 h): 45%
- Hydrolysis at pH 7.5 (fraction hydrolysed) ([1]; neutral buffer pH 7.5, high concentration, NMR, after 24 h): 45%
- heptaLys Ymax [2, 5]: 54%
- EC50 [2, 6]: 22 µM
- HeptaArg Y max [2, 7]: 66%
- EC50 [2, 8]: 13 µM
- PolyArg Y max [2, 9]: 94%
- EC50 [2, 10]: 19 µM
- Protamine Y max [2, 11]: 72%
- EC50 [2, 12]: 17 µM
- HeptaArg Ymax, pH 5.5 [2, 13]: 66%
- EC50 [2, 14]: 9 µM
- PolyArg Ymax, pH 5.5 [2, 15]: 86%
- EC50 [2, 16]: 5 µM
- Protamine Ymax, pH 5.5 [2, 17]: 80%
- EC50 [2, 18]: 14 µM
- heptaLys E [2, 5]: 4.4
- PolyArg E (activation efficiency) [2, 9]: 8.6
- Protamine E (activation efficiency) [2, 11]: 6.0
- HeptaArg E (activation efficiency) [2, 19]: 5.7
- HeptaArg E, pH 5.5 ([2]; EYPC vesicles, pH 5.5): 6.6
- PolyArg E, pH 5.5 ([2]; EYPC vesicles, pH 5.5): 9.7
- Protamine E, pH 5.5 [2, 20]: 7.3
- Transport activity (in words) [2]: triggered the desired increase in fluorescence characteristic for cargo transport
- Onset for transport activity (carrier concentration) [2]: around 1 µM
- Cell viability (CHO‐K1 cells): about 80%

Substance: Na3[α‐P^VW^VI 12O40]·nH2O [[PW12]^3‒]
- % monolacunary [PVWVI11O39]7‒ formed, Mes pH 5.5 after 1 day [1, 3]: 61%
- % monolacunary [PVWVI11O39]7‒ formed, Mes pH 5.5 freshly prepared [1, 3]: 61%
- % parent anion, Mes pH 5.5 after 1 day [1, 3]: 5%
- % parent anion, NaOAc/HOAc pH 4 after 1 day ([1]; 3 mM POM, 10 mM NaOAc/HOAc pH 4, 31P NMR integration): 28%
- Hydrolysis/stability pH 5.5 ([1]; NMR): to [P^VW^VI 11O39]^7‒
- Carrier activity ([2]; EYPC vesicles, pH 5.5 and 7.4, cargos heptaArg, protamine, polyArg ([AlMo6]: heptaArg and protamine only)): ‐ – ‐ ^k) , ^l)
- Transport activity (in words) [2]: neither an interaction with the membrane nor cargo transport
